US20240270720A1, “INDAZOLE YL BENZIMIDAZOLE DERIVATIVE OR PHARMACEUTICALLY ACCEPTABLE SALT THEREOF, AND USE THEREOF” (INDUSTRY-UNIVERSITY COOPERATION FOUNDATION HANYANG …, priority 2021, published 2024)
Substitutions are numbered along the chain they refer to. Like-named read-outs stand apart in the source and are kept apart here.

Assays:
FLT3 (D835Y) = biological target: T1, FLT3 (D835Y) (Homo sapiens, UniProt P36888, D835Y); assay: Kinase HotSpot radiometric kinase assay (Reaction Biology)
T1 sequence (P36888 27-993 D835Y): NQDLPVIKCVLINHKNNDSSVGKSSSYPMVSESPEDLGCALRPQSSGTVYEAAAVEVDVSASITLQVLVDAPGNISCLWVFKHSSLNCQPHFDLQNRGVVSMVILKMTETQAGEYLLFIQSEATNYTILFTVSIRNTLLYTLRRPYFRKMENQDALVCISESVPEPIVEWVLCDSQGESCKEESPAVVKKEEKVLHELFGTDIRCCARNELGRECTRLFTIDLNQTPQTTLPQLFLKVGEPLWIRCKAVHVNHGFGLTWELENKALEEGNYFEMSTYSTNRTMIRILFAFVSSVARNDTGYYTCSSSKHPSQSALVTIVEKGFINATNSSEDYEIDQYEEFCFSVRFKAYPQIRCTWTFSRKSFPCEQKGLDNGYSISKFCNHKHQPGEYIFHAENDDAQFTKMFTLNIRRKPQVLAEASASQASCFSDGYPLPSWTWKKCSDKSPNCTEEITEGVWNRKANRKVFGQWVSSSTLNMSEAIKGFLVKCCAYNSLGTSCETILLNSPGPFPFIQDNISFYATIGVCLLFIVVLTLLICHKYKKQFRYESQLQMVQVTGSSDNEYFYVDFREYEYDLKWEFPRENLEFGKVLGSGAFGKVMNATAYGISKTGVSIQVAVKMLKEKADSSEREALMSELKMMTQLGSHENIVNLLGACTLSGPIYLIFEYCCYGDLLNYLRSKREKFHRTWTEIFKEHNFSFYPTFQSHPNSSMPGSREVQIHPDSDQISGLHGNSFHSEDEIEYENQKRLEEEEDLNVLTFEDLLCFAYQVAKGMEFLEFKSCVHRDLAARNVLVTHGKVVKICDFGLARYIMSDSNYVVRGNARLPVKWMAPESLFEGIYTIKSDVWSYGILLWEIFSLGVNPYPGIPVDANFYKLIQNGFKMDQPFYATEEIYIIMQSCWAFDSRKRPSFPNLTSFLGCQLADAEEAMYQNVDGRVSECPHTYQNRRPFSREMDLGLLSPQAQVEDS
Protocol: (§1) Reaction Biology Corp. Kinase HotSpot SM service (www.reactionbiology.com) was used to determine IC50 values for all compounds and kinase profiles. The analysis protocol was as follows: In a final reaction volume of 25 μL, a peptide substrate, [[sequence]], 5 μM, ATP 10 μM, and FLT3(h) (5 to 10 mU) were incubated with 25 mM Tris pH 7.5, 0.02 mM EGTA, 0.66 mg/mL myelin basic protein, 10 mM Mg acetate and [γ-33P-ATP] (a concentration of approximately 500 cpm/pmol was required for specific activity). The reaction was initiated by adding the Mg-ATP mixture. After incubation at room temperature for 40 minutes, the reaction was stopped by adding 5 μL of a 3% phosphoric acid solution. Thereafter, 10 μL of the reactant was spotted on a P30 filter mat and washed three times for 5 minutes in 75 mM phosphoric acid and once in methanol before drying and scintillation counting.

FLT3 wild type = biological target: T2, FLT3 wild type (Homo sapiens, UniProt P36888); assay: as above; format: biochemical; settings: Table 1; read-out: FLT3 IC50
T2 construct: purchased Reaction Biology Corp. (Kinase HotSpot service)
T2 sequence (P36888 27-993): T1 sequence (P36888 27-993 D835Y) with Y809D
Protocol: as §1

[1] = read-out: FLT3 (D835Y) IC50, Table 1

Row | SMILES | IC50 (FLT3 (D835Y); [1]) | IC50 (FLT3 wild type) | melting point | IC50 (FLT3 (D835Y))
1 | CCN1CCN(Cc2cc(C(=O)Nc3ccc4[nH]c(-c5ccc6cn[nH]c6c5)nc4c3)cc(C(F)(F)F)c2)CC1(C)C [Compound 8y, N-(2-(1H-indazol-6-yl)-1H-benzo[di]imidazol-5-yl)-3-((4-ethyl-3,3-dimethylpiperazine-1-yl)methyl)-5-(trifluoromethyl)benzamide] | 42 nM | 145 nM | 255 to 257 °C | –
2 | CN1CCN(c2cc(C(=O)Nc3ccc4[nH]c(-c5ccc6cn[nH]c6c5)nc4c3)cc(C(F)(F)F)c2)CC1 [Compound 8a, N-(2-(1H-indazol-6-yl)-1H-benzo[di]imidazol-5-yl)-3-(4-methylpiperazin-1-yl)-5-(trifluoromethyl)benzamide] | 21 nM | 181 nM | 228 to 230 °C | –
3 | Cc1cn(-c2cc(C(=O)Nc3ccc4[nH]c(-c5ccc6cn[nH]c6c5)nc4c3)cc(C(F)(F)F)c2)cn1 [Compound 8b, N-(2-(1H-indazol-6-yl)-1H-benzo[di]imidazol-5-yl)-3-(4-methyl-1H-imidazol-1-yl)-5-(trifluoromethyl)benzamide] | 110 nM | 639 nM | 239 to 241 °C | –
4 | Cc1nccn1-c1cc(C(=O)Nc2ccc3[nH]c(-c4ccc5cn[nH]c5c4)nc3c2)cc(C(F)(F)F)c1 [Compound 8c, N-(2-(1H-indazol-6-yl)-1H-benzo[di]imidazol-5-yl)-3-(2-methyl-1H-imidazol-1-yl)-5-(trifluoromethyl)benzamide] | – | 470 nM | 251 to 253 °C | –
5 | CCN1CCC(Nc2cc(C(=O)Nc3ccc4[nH]c(-c5ccc6cn[nH]c6c5)nc4c3)cc(C(F)(F)F)c2)CC1 [Compound 8t, N-(2-(1H-indazol-6-yl)-1H-benzo[di]imidazol-5-yl)-3-((1-ethylpiperidin-4-yl)amino)-5-(trifluoromethyl)benzamide] | 87 nM | 286 nM | 166 to 168 °C | –
6 | CC(C)(C)c1cc(C(=O)Nc2ccc3[nH]c(-c4ccc5cn[nH]c5c4)nc3c2)no1 [Compound 8h, N-(2-(1H-indazol-6-yl)-1H-benzo[di]imidazol-5-yl)-5-(tert-butyl)isoxazole-3-carboxamide] | – | ~700 nM | 147 to 149 °C | 32 nM
7 | CN1CCC(Oc2cc(C(=O)Nc3ccc4[nH]c(-c5ccc6cn[nH]c6c5)nc4c3)cc(C(F)(F)F)c2)CC1 [Compound 8u, N-(2-(1H-indazol-6-yl)-1H-benzo[di]imidazol-5-yl)-3-((1-methylpiperidin-4-yl)oxy)-5-(trifluoromethyl)benzamide] | 55 nM | – | 293 to 295 °C | –
8 | CN1CCC(Oc2ccc(C(=O)Nc3ccc4[nH]c(-c5ccc6cn[nH]c6c5)nc4c3)cc2C(F)(F)F)CC1 [Compound 8x, N-(2-(1H-indazol-6-yl)-1H-benzo[di]imidazol-5-yl)-4-((1-methylpiperidin-4-yl)oxy)-3-(trifluoromethyl)benzamide] | – | 743 nM | 293 to 295 °C | –
9 | O=C(Nc1ccc(Cl)c(Cl)c1)Nc1ccc2[nH]c(-c3ccc4cn[nH]c4c3)nc2c1 [Compound 8m, 1-(2-(1H-indazol-6-yl)-1H-benzo[di]imidazol-5-yl)-3-(3,4-dichlorophenyl)urea] | – | 3080 nM | 144 to 146 °C | ~1000 nM
10 | CCN1CCN(Cc2ccc(C(=O)Nc3ccc4[nH]c(-c5ccc6cn[nH]c6c5)nc4c3)cc2C(F)(F)F)CC1 [Compound 8w, N-(2-(1H-indazol-6-yl)-1H-benzo[di]imidazol-5-yl)-4-((4-ethylpiperazin-1-yl)methyl)-3-(trifluoromethyl)benzamide] | – | 290 nM | 164 to 166 °C | –
11 | CN1CCC(Nc2cc(C(=O)Nc3ccc4[nH]c(-c5ccc6cn[nH]c6c5)nc4c3)cc(C(F)(F)F)c2)CC1 [Compound 8s, N-(2-(1H-indazol-6-yl)-1H-benzo[di]imidazol-5-yl)-3-((1-methylpiperidin-4-yl)amino)-5-(trifluoromethyl)benzamide] | – | – | 175 to 177 °C | –
12 | O=C(Nc1ccc2[nH]c(-c3ccc4cn[nH]c4c3)nc2c1)c1cnn(-c2ccccc2)c1C(F)(F)F [Compound 8g, N-(2-(1H-indazol-6-yl)-1H-benzo[di]imidazol-5-yl)-1-phenyl-5-(trifluoromethyl)-1H-pyrazole-4-carboxamide] | – | 1100 nM | 258 to 260 °C | –
13 | O=C(Nc1ccc2[nH]c(-c3ccc4cn[nH]c4c3)nc2c1)c1cc(CN2CCN(C3CC3)CC2)cc(C(F)(F)F)c1 [Compound 8q, N-(2-(1H-indazol-6-yl)-1H-benzo[di]imidazol-5-yl)-3-((4-cyclopropylpiperazin-1-yl)methyl)-5-(trifluoromethyl)benzamide] | – | 523 nM | 150 to 152 °C | –
14 | CN1CCN(c2ccc(C(=O)Nc3ccc4[nH]c(-c5ccc6cn[nH]c6c5)nc4c3)cc2C(F)(F)F)CC1 [Compound 8e, N-(2-(1H-indazol-6-yl)-1H-benzo[di]imidazol-5-yl)-4-(4-methylpiperazin-1-yl)-3-(trifluoromethyl)benzamide] | 44 nM | 154 nM | 160 to 161 °C | –
15 | CN(C)C1CCN(c2cc(C(=O)Nc3ccc4[nH]c(-c5ccc6cn[nH]c6c5)nc4c3)cc(C(F)(F)F)c2)C1 (centres unmarked) [Compound 8n, N-(2-(1H-indazol-6-yl)-1H-benzo[di]imidazol-5-yl)-3-(3-(dimethylamino)pyrrolidin-1-yl)-5-(trifluoromethyl)benzamide] | – | 287 nM | 283 to 285 °C | –
16 | O=C(Nc1ccc2[nH]c(-c3ccc4cn[nH]c4c3)nc2c1)c1cc(N2CCOCC2)cc(C(F)(F)F)c1 [Compound 8d, N-(2-(1H-indazol-6-yl)-1H-benzo[di]imidazol-5-yl)-3-morpholino-5-(trifluoromethyl)benzamide] | 151 nM | 1030 nM | 195 to 196 °C | –
17 | CC(C)(C)c1cc(NC(=O)Nc2ccc3[nH]c(-c4ccc5cn[nH]c5c4)nc3c2)no1 [Compound 8l, 1-(2-(1H-indazol-6-yl)-1H-benzo[di]imidazol-5-yl)-3-(5-(tert-butyl)isoxazol-3-yl)urea] | – | 1170 nM | 184 to 186 °C | –
18 | CN1CCC[C@@H](Nc2cc(C(=O)Nc3ccc4[nH]c(-c5ccc6cn[nH]c6c5)nc4c3)cc(C(F)(F)F)c2)C1 [Compound 8v, N-(2-(1H-indazol-6-yl)-1H-benzo[di]imidazol-5-yl)-3-((1-methylpiperidin-3-yl)amino)-5-(trifluoromethyl)benzamide] | – | – | 213 to 214 °C | –
19 | COc1ccc(/C=C/C(=O)Nc2ccc3[nH]c(-c4ccc5cn[nH]c5c4)nc3c2)cc1 [Compound 8k, (E)-N-(2-(1H-indazol-6-yl)-1H-benzo[di]imidazol-5-yl)-3-(4-methoxyphenyl)acrylamide] | – | 761 nM | 206 to 208 °C | –
